Measurements reported in patent publication US6878689B2, “Preventives or remedies for heart failure” (Kaken Pharmaceutical Co., Ltd., priority 2000, dated 2005).
Where a SMILES comes first, the peptide text is derived from it. [ ]: non-standard residue; d: D form. d2Nal = N[C@H](Cc1ccc2ccccc2c1)C(=O)O

Test system: papillary muscle of guinea-pig
Assay: Myocardial contractility (developed tension) in isolated, electrically driven papillary muscle of guinea-pig
Details: cumulative 10, 30 and 100 μM; n=5; FIG. 1
Method: [Test Example 1] Myocardial Contractility Enhancing Action of Pralmorelin in the Papillary Muscle of Guinea-Pig
The direct effect of pralmorelin on myocardial contractility was evaluated using the isolated cardiac muscle of guinea-pigs according to the standard method for evaluating myocardial contractility. • 1. Materials and Experimental Method • 1) Animal Used
Male Hartley guinea-pigs (body weight, 301-350 g; Japan SLC) were purchased. The animals were accommodated to an environment at a temperature of 23±2° C. and a humidity of 55±15% under 12-hr light/dark cycles while they were allowed to eat and drink water ad libitum until they weighed 360-480 g. Each test substance was tested on a group of five animals. • 2) Reagents Used
The test substances were pralmorelin dihydrochloride (KP-102), representatives of growth hormone secretagogues such as hexarelin, ghrelin and ibutamorelin methanesulfonate (the last being hereunder referred to as MK-0677) (which were prepared by the method described in JP 6-263737 A (kokai)), as well as a recombinant human growth hormone (Sumitomo Pharmaceutical) and amrinone (Sigma) which is a known therapeutic of acute heart failure. KP-102, hexarelin and MK-0677 were dissolved in distilled water. Ghrelin was dissolved in physiological saline. Amrinone was first dissolved in dimethyl sulfoxide and then diluted with physiological saline. The growth hormone was dissolved in a dedicated solubilizer (0.3 w/v % metacresol and 3.9 w/v % D-mannitol). None of the test substance solutions should be added in an amount exceeding 1 w/v %. All reagents other than the test substances were guaranteed products of Nacalai Tesque. • 3) Preparing Specimens of the Isolated Papillary Muscle
The guinea-pigs were stunned with a blow to the back of their head; thereafter, the carotid artery was incised and the animals were exsanguinated to death. The chest was opened, the blood vessels in the upper part of the heart were cut and the heart was removed. The heart was immediately transferred into a Krebs-Henseleit (K-H) nutrient solution (NaCl, 118.0 mM; KCl, 4.7 mM; CaCl2. 2H2O, 1.0 mM; KH2PO4, 1.2 mM; MgSO4.7H2O, 1.2 mM; NaHCO3, 25.0 mM; glucose, 11.0 mM) that had been fully aerated with 95% O2-5% CO2. The heart was fixed on a rubber-lined Petri dish with needles such that its front face was seen. The ventricular wall of the upper right ventricle (toward the atrium) was excised transversely along the atrium, then excised longitudinally along the interventricular septum so that the ventricular wall was opened to expose the right ventricular papillary muscle. Subsequently, the entire surface of the left ventricle was cut open from the aorta (down) to the apex and the anterior wall of the left ventricle was opened wide, to both right and left, and fixed to expose the papillary muscle of the left ventricle. The tricupsid or mitral valve was cut off from the ventricle and the papillary muscle was cut off at the base to prepare a specimen of papillary muscle. The base of the specimen was fixed to field stimulating electrodes in an organ bath filled with 15 mL of the nutrient solution. The tendinous cord adhering to the valve was tied up with a thread and connected to an FD pickup (TB-612T, Nihon Kohden). A resting tension of 0.5 g was loaded and the papillary muscle was driven with an electric stimulator (SEN-3201, Nihon Kohden) at a frequency of 1 Hz by pulses of 20-ms duration and at a voltage intensity about 1.2 times the threshold. After an equilibration period of about 1 hr, KP-102, hexarelin and amrinone were each applied cumulatively up to amounts of 10, 30 and 100 μM. After examination of the changes in inotropic action due to the application of the test substances, 12.5 mM of CaCl2 was added and the maximum tension that was developed by each specimen was obtained. […]

Which “tension development (positive inotropic action) vs baseline” value does the source give for `C[C@H](NC(=O)[C@@H](Cc1ccc2ccccc2c1)NC(=O)[C@@H](C)N)C(=O)N[C@@H](Cc1c[nH]c2ccccc12)C(=O)N[C@H](Cc1ccccc1)C(=O)N[C@@H](CCCCN)C(N)=O` [KP-102, D-alanyl-3-(naphthalen-2-yl)-D-alanyl-L-alanyl-L-tryptophyl-D-phenylalanyl-L-lysinamide] (H-[dA][d2Nal]AW[dF]K-NH2) here?
The value was “significant effect over the baseline value”.
